From ChEMBL document CHEMBL1151249, “Cytotoxic and antimicrobial constituents of the bark of Diospyros maritima collected in two geographical locations in Indonesia” (J Nat Prod, 2004)
In brackets after ≈: the same amount, converted by molar mass.

Experiments:
Saccharomyces cerevisiae [1] = test: Antifungal activity against Saccharomyces cerevisiae after 18 hrs by zone-of-inhibition assay; type: functional, organism-based
Cryptococcus neoformans [2] = test: Antifungal activity against Cryptococcus neoformans after 18 hrs by zone-of-inhibition assay; type: functional, organism-based; conditions: for IC50: Cryptococcus neoformans, 18 h
Cryptococcus neoformans [3] = test: Antifungal activity against Cryptococcus neoformans assessed as 99.9 % growth inhibition after 18 hrs by zone-of-inhibition assay; type: functional
Micrococcus luteus [4] = test: Antimicrobial activity against Micrococcus luteus after 18 hrs by zone-of-inhibition assay; type: functional, organism-based
Mycobacterium avium [5] = test: Antimicrobial activity against Mycobacterium avium after 18 hrs by zone-of-inhibition assay; type: functional, organism-based
Staphylococcus aureus [6] = test: Antimicrobial activity against Staphylococcus aureus assessed as 99.9 % growth inhibition after 18 hrs by zone-of-inhibition assay; type: functional
Aspergillus niger [7] = test: Antifungal activity against Aspergillus niger assessed as 99.9 % growth inhibition after 18 hrs by zone-of-inhibition assay; type: functional
Micrococcus luteus [8] = test: Antimicrobial activity against Micrococcus luteus assessed as 99.9 % growth inhibition after 18 hrs by zone-of-inhibition assay; type: functional
Saccharomyces cerevisiae [9] = test: Antifungal activity against Saccharomyces cerevisiae assessed as 99.9 % growth inhibition after 18 hrs by zone-of-inhibition assay; type: functional
Candida albicans [10] = test: Antimicrobial activity against Candida albicans assessed as 99.9 % growth inhibition after 18 hrs by zone-of-inhibition assay; type: functional
[11] = system: Mycolicibacterium smegmatis; test: Antimicrobial activity against Mycobacterium smegmatis after 18 hrs by zone-of-inhibition assay; type: functional, organism-based
Staphylococcus aureus [12] = test: Antimicrobial activity against Staphylococcus aureus after 18 hrs by zone-of-inhibition assay; type: functional, organism-based
[13] = system: Mycolicibacterium smegmatis; test: Antimicrobial activity against Mycobacterium smegmatis assessed as 99.9 % growth inhibition after 18 hrs by zone-of-inhibition assay; type: functional
Candida albicans [14] = test: Antifungal activity against Candida albicans after 18 hrs by zone-of-inhibition assay; type: functional, organism-based; conditions: for IC50: Candida albicans, 18 h
Aspergillus niger [15] = test: Antifungal activity against Aspergillus niger after 18 hrs by zone-of-inhibition assay; type: functional, organism-based
KB = test: Cytotoxicity against human KB cells; type: functional, cell-based
[16] = Cytotoxicity against human HUVEC; type: cell-based; conditions: HUVEC cells, read-out: ED50 (the source's name)
LNCaP = test: Cytotoxicity against human LNCAP cells; type: functional; conditions: read-out: ED50 (the source's name)
Lu1 = test: Cytotoxicity against human Lu1 cells; type: functional; conditions: read-out: ED50 (the source's name)
Mycobacterium avium [17] = test: Antimicrobial activity against Mycobacterium avium assessed as 99.9 % growth inhibition after 18 hrs by zone-of-inhibition assay; type: functional
[18] = read-out: ED50 (the source's name)

Compound | IC50 (Saccharomyces cerevisiae [1]) | Activity (Cryptococcus neoformans [3]) | IC50 (Micrococcus luteus [4]) | IC50 (Mycobacterium avium [5]) | Activity (Staphylococcus aureus [6]) | Activity (Aspergillus niger [7]) | Activity (Micrococcus luteus [8]) | Activity (Saccharomyces cerevisiae [9]) | Activity (Candida albicans [10]) | IC50 [11] | IC50 (Staphylococcus aureus [12]) | Activity [13] | IC50 (Aspergillus niger [15]) | IC50 (Cryptococcus neoformans [2]) | EC50 (KB; [18]) | CC50 [16] | EC50 (LNCaP) | EC50 (Lu1) | IC50 (Candida albicans [14]) | further results
COc1cc2c[n+](C)c3c4cc5c(cc4ccc3c2cc1OC)OCO5.[Cl-] [NITIDINE CHLORIDE] | 300 µg/mL | 300 µg/mL | 200 µg/mL | 3000 µg/mL | 5000 µg/mL | >5000 µg/mL | 5000 µg/mL | 3000 µg/mL | 200 µg/mL | 1000 µg/mL | 300 µg/mL | >5000 µg/mL | 3000 µg/mL |  |  |  |  |  |  | Activity (Cryptococcus neoformans [2]): 80 µg/mL; Activity (Candida albicans [14]): 20 µg/mL
Cc1cc(O)c2c(c1)C(=O)C=CC2=O [RAMENTACEONE] | 0.3 µg/mL (≈ 1.59 µM) | 1 µg/mL | 20 µg/mL (≈ 106 µM) | 5 µg/mL (≈ 26.6 µM) | >1000 µg/mL | 300 µg/mL | 1000 µg/mL | 1 µg/mL | 20 µg/mL | 40 µg/mL (≈ 213 µM) | 200 µg/mL (≈ 1060 µM) | 600 µg/mL | 5 µg/mL (≈ 26.6 µM) | 0.3 µg/mL (≈ 1.59 µM) | 4.1 µg/mL (≈ 21.8 µM) | 5.7 µg/mL (≈ 30.3 µM) | 3.7 µg/mL (≈ 19.7 µM) | 13.2 µg/mL (≈ 70.1 µM) | 0.3 µg/mL (≈ 1.59 µM) | 
C=C(C)[C@@H]1CC[C@]2(C)CC[C@]3(C)[C@H](CC[C@@H]4[C@@]5(C)CC[C@H](O)C(C)(C)[C@@H]5CC[C@]43C)[C@@H]12 [LUPEOL] | > 1000 µg/mL | >1000 µg/mL | > 1000 µg/mL | > 1000 µg/mL | >1000 µg/mL | >1000 µg/mL | >1000 µg/mL | >1000 µg/mL | >1000 µg/mL | > 1000 µg/mL | > 1000 µg/mL | >1000 µg/mL | > 1000 µg/mL | > 1000 µg/mL | > 5 µg/mL | > 5 µg/mL | > 5 µg/mL | > 5 µg/mL | > 1000 µg/mL | 
COC(=O)c1c(O)cc(C)cc1O | > 1000 µg/mL | >1000 µg/mL | > 1000 µg/mL | > 1000 µg/mL | >1000 µg/mL | >1000 µg/mL | >1000 µg/mL | >1000 µg/mL | >1000 µg/mL | > 1000 µg/mL | > 1000 µg/mL | >1000 µg/mL | > 1000 µg/mL | > 1000 µg/mL | > 5 µg/mL | > 5 µg/mL | > 5 µg/mL | > 5 µg/mL | > 1000 µg/mL | 
Cc1cc(O)c2c(c1)[C@@H](O)CCC2=O [4S-SHINANOLONE] | > 1000 µg/mL | >1000 µg/mL | > 1000 µg/mL | > 1000 µg/mL | >1000 µg/mL | >1000 µg/mL | >1000 µg/mL | >1000 µg/mL | >1000 µg/mL | > 1000 µg/mL | > 1000 µg/mL | >1000 µg/mL | > 1000 µg/mL | > 1000 µg/mL | > 5 µg/mL | > 5 µg/mL | > 5 µg/mL | > 5 µg/mL | > 1000 µg/mL | 
COC1=CC(=O)c2cc(C)cc(O)c2C1=O | > 1000 µg/mL | >1000 µg/mL | 700 µg/mL (≈ 3210 µM) | 700 µg/mL (≈ 3210 µM) | >1000 µg/mL | >1000 µg/mL | >1000 µg/mL | >1000 µg/mL | >1000 µg/mL | > 1000 µg/mL | > 1000 µg/mL | >1000 µg/mL | > 1000 µg/mL | > 1000 µg/mL | 2.4 µg/mL (≈ 11 µM) | 5.5 µg/mL (≈ 25.2 µM) | 4.1 µg/mL (≈ 18.8 µM) | 1.8 µg/mL (≈ 8.25 µM) | > 1000 µg/mL | 
CC12C(=O)c3cccc(O)c3C(=O)C1CC1=C2C(=O)c2c(O)cccc2C1=O (stereo unspecified) [ZEYLANONE] | 10 µg/mL (≈ 26.7 µM) | 100 µg/mL | 50 µg/mL (≈ 134 µM) | 200 µg/mL (≈ 534 µM) | >800 µg/mL | >800 µg/mL | >800 µg/mL | 500 µg/mL | 3 µg/mL | 50 µg/mL (≈ 134 µM) | 6 µg/mL (≈ 16 µM) | 400 µg/mL | 30 µg/mL (≈ 80.1 µM) | 10 µg/mL (≈ 26.7 µM) | 2.1 µg/mL (≈ 5.61 µM) | 3.3 µg/mL (≈ 8.82 µM) | 3.3 µg/mL (≈ 8.82 µM) | 14.5 µg/mL (≈ 38.7 µM) | 3 µg/mL (≈ 8.01 µM) | 
C=C(C)[C@@H]1CC[C@]2(CO)CC[C@]3(C)[C@H](CC[C@@H]4[C@@]5(C)CC[C@H](O)C(C)(C)[C@@H]5CC[C@]43C)[C@@H]12 [BETULIN] |  |  |  |  |  |  |  |  |  |  |  |  |  |  | > 5 µg/mL | > 5 µg/mL | > 5 µg/mL | > 5 µg/mL |  | 
COC1=CC(=O)c2c(O)cc(C)cc2C1=O | 50 µg/mL (≈ 229 µM) | 200 µg/mL | 50 µg/mL (≈ 229 µM) | 50 µg/mL (≈ 229 µM) | 400 µg/mL | >1000 µg/mL | 800 µg/mL | 200 µg/mL | 800 µg/mL | 50 µg/mL (≈ 229 µM) | 200 µg/mL (≈ 917 µM) | 800 µg/mL | 100 µg/mL (≈ 458 µM) | 50 µg/mL (≈ 229 µM) | 1.9 µg/mL (≈ 8.71 µM) | 2 µg/mL (≈ 9.17 µM) | 3.4 µg/mL (≈ 15.6 µM) | 0.2 µg/mL (≈ 0.917 µM) | 100 µg/mL (≈ 458 µM) | 
COc1cc2ccc(=O)oc2cc1O [SCOPOLETIN] | > 1000 µg/mL | >1000 µg/mL | > 1000 µg/mL | > 1000 µg/mL | >1000 µg/mL | >1000 µg/mL | >1000 µg/mL | >1000 µg/mL | >1000 µg/mL | > 1000 µg/mL | > 1000 µg/mL | >1000 µg/mL | > 1000 µg/mL | > 1000 µg/mL | > 5 µg/mL | > 5 µg/mL | > 5 µg/mL | > 5 µg/mL | > 1000 µg/mL | 
COc1c(O)cc2ccc(=O)oc2c1OC | > 1000 µg/mL | >1000 µg/mL | > 1000 µg/mL | > 1000 µg/mL | >1000 µg/mL | >1000 µg/mL | >1000 µg/mL | >1000 µg/mL | >1000 µg/mL | > 1000 µg/mL | > 1000 µg/mL | >1000 µg/mL | > 1000 µg/mL | > 1000 µg/mL | > 5 µg/mL | > 5 µg/mL | > 5 µg/mL | > 5 µg/mL | > 1000 µg/mL | 
CC[C@@]1(O)C(=O)OCc2c1cc1n(c2=O)Cc2cc3ccccc3nc2-1 [CAMPTOTHECIN] |  |  |  |  |  |  |  |  |  |  |  |  |  |  |  |  |  |  |  | EC50 (KB; read-out: EC50): 0.01 µg/mL (≈ 0.0287 µM)
CC1=CC(=O)c2c(ccc(C3=C(C)C(=O)c4cccc(O)c4C3=O)c2O)C1=O [CHITRANONE] | 3 µg/mL (≈ 8.01 µM) | 10 µg/mL | 10 µg/mL (≈ 26.7 µM) | 5 µg/mL (≈ 13.4 µM) | >1000 µg/mL | >1000 µg/mL | >1000 µg/mL | 10 µg/mL | >1000 µg/mL | 6 µg/mL (≈ 16 µM) | 90 µg/mL (≈ 240 µM) | 20 µg/mL | 6 µg/mL (≈ 16 µM) | 3 µg/mL (≈ 8.01 µM) | 0.3 µg/mL (≈ 0.801 µM) | 2.1 µg/mL (≈ 5.61 µM) | 2.2 µg/mL (≈ 5.88 µM) | 1.1 µg/mL (≈ 2.94 µM) | 10 µg/mL (≈ 26.7 µM) | Activity (Mycobacterium avium [17]): 90 µg/mL
